Values after ≈ are worked out from the molar mass of the structure shown. Values joined by “and” are separate entries in the source; they are usually repeats but may differ in a detail not shown here. Equal entries are not always repeated. Where two headings read alike, the source gives them in different places.
How the values were obtained:
Test in all cases: MIC, broth microdilution
[1] = test system: MBL-producing isolates (Enterobacterales); assay type: cell-based
[2] = test system: MEM-nonsusceptible Enterobacterales; assay type: cell-based; settings: MEM-nonsusceptible Enterobacterales (127), cefiderocol 126 isolates; for MIC50 / MIC90: fixed concentration (μg/mL) in label
[3] = test system: MEM-nonsusceptible Enterobacterales with serine-carbapenemases; assay type: cell-based; settings: MEM-nonsusceptible Enterobacterales with serine-carbapenemases (58); for MIC50 / MIC90: fixed concentration (μg/mL) in label
96 P. aeruginosa = assay type: cell-based, Pseudomonas aeruginosa; settings: Pseudomonas aeruginosa (96)
[4] = test system: 207 Enterobacterales including carbapenem-resistant isolates; assay type: cell-based
[5] = test system: MEM-nonsusceptible Enterobacterales with metallo-carbapenemases; assay type: cell-based; settings: MEM-nonsusceptible Enterobacterales with metallo-carbapenemases (55), cefiderocol 54 isolates; for MIC50 / MIC90: fixed concentration (μg/mL) in label
[6] = test system: MEM-, imipenem/relebactam-, and ceftolozane/tazobactam-nonsusceptible P. aeruginosa; assay type: cell-based, Pseudomonas aeruginosa; settings: for CLSI MIC interpretation (%) I: intermediate (including susceptible dose-dependent); for CLSI MIC interpretation (%) R: resistant
[7] = test system: 55 isolates of A. baumannii; assay type: cell-based, Acinetobacter baumannii; settings: Acinetobacter baumannii (55); for MIC50 / MIC90: fixed concentration (μg/mL) in label
[8] = test system: serine-carbapenemase-producing isolates (Enterobacterales); assay type: cell-based; settings: Enterobacterales with serine-carbapenemases (80); for MIC50 / MIC90: fixed concentration (μg/mL) in label
[9] = Enterobacterales with metallo-carbapenemases (74), cefiderocol 73 isolates, CLSI breakpoints, marked c: breakpoints for β-lactam alone, tigecycline: FDA breakpoints
[10] = CLSI breakpoints, marked c: breakpoints for β-lactam alone, tigecycline: FDA breakpoints
[11] = CLSI breakpoints, marked c: breakpoints for β-lactam alone
[12] = All Enterobacterales (207), cefiderocol 205 isolates, CLSI breakpoints, marked c: breakpoints for β-lactam alone, tigecycline: FDA breakpoints
[13] = CLSI breakpoints, last subgroup of Table 2
[14] = Imipenem/relebactam-nonsusceptible Pseudomonas aeruginosa (43), CLSI breakpoints, marked c: breakpoints for β-lactam alone
[15] = MEM-nonsusceptible Pseudomonas aeruginosa (76), CLSI breakpoints, marked c: breakpoints for β-lactam alone
[16] = Enterobacterales with metallo-carbapenemases (74), cefiderocol 73 isolates, fixed concentration (μg/mL) in label
[17] = fixed concentration (μg/mL) in label
[18] = All Enterobacterales (207), cefiderocol 205 isolates, fixed concentration (μg/mL) in label
[19] = MEM-nonsusceptible Pseudomonas aeruginosa (76), fixed concentration (μg/mL) in label

NCC[C@H](O)C(=O)N[C@@H]1C[C@H](N)[C@@H](O[C@H]2O[C@H](CN)[C@@H](O)[C@H](O)[C@H]2O)[C@H](O)[C@H]1O[C@H]1O[C@H](CO)[C@@H](O)[C@H](N)[C@H]1O [Amikacin]
CLSI MIC interpretation I (intermediate) [1, 9]: 5.4%
CLSI MIC interpretation R (resistant) [1, 9]: 52.7%
CLSI MIC interpretation S (susceptible) [1, 9]: 41.9%
MIC50 ([1]; Enterobacterales with metallo-carbapenemases (74), cefiderocol 73 isolates, fixed concentration (μg/mL) in label, read-out: MIC50): 16 mg/L (≈ 27.3 µM)
MIC90 ([1]; Enterobacterales with metallo-carbapenemases (74), cefiderocol 73 isolates, fixed concentration (μg/mL) in label, read-out: MIC90): > 64 mg/L
CLSI MIC interpretation I (intermediate) [2, 10]: 7.9%
CLSI MIC interpretation R (resistant) [2, 10]: 52%
CLSI MIC interpretation S (susceptible) [2, 10]: 40.2%
MIC50 ([2]; read-out: MIC50): 16 mg/L (≈ 27.3 µM)
MIC90 ([2]; read-out: MIC90): > 64 mg/L
CLSI MIC interpretation I (intermediate) [3, 10]: 10.3%
CLSI MIC interpretation R (resistant) [3, 10]: 44.8%
CLSI MIC interpretation S (susceptible) [3, 10]: 44.8%
MIC50 ([3]; read-out: MIC50): 8 mg/L (≈ 13.7 µM)
MIC90 ([3]; read-out: MIC90): 64 mg/L (≈ 109 µM)
CLSI MIC interpretation I (intermediate) (96 P. aeruginosa; [11]): 7.3%
CLSI MIC interpretation R (resistant) (96 P. aeruginosa; [11]): 29.2%
CLSI MIC interpretation S (susceptible) (96 P. aeruginosa; [11]): 63.5%
MIC50 (96 P. aeruginosa; fixed concentration (μg/mL) in label, read-out: MIC50): 8 mg/L (≈ 13.7 µM)
MIC90 (96 P. aeruginosa; fixed concentration (μg/mL) in label, read-out: MIC90): > 64 mg/L
CLSI MIC interpretation I (intermediate) [4, 12]: 6.3%
CLSI MIC interpretation R (resistant) [4, 12]: 36.7%
CLSI MIC interpretation S (susceptible) [4, 12]: 57%
MIC50 ([4]; read-out: MIC50): 4 mg/L (≈ 6.83 µM)
MIC90 ([4]; read-out: MIC90): > 64 mg/L
CLSI MIC interpretation I (intermediate) [5, 10]: 5.5%
CLSI MIC interpretation R (resistant) [5, 10]: 65.5%
MIC50 ([5]; read-out: MIC50): 32 mg/L (≈ 54.6 µM)
MIC90 ([5]; read-out: MIC90): > 64 mg/L
CLSI MIC interpretation (%) I [6, 13]: 11.1%
CLSI MIC interpretation I (intermediate) [6, 14]: 9.3%
CLSI MIC interpretation R (resistant) [6, 14]: 58.1%
CLSI MIC interpretation S (susceptible) [6, 14]: 32.6%
CLSI MIC interpretation I (intermediate) [6, 15]: 7.9%
CLSI MIC interpretation R (resistant) [6, 15]: 36.8%
CLSI MIC interpretation S (susceptible) [6, 15]: 55.3%
MIC50 ([6]; Pseudomonas aeruginosa, Imipenem/relebactam-nonsusceptible Pseudomonas aeruginosa (43), fixed concentration (μg/mL) in label, read-out: MIC50): 64 mg/L
MIC90 ([6]; Pseudomonas aeruginosa, Imipenem/relebactam-nonsusceptible Pseudomonas aeruginosa (43), fixed concentration (μg/mL) in label, read-out: MIC90): > 64 mg/L
MIC50 ([6]; Pseudomonas aeruginosa, MEM-nonsusceptible Pseudomonas aeruginosa (76), fixed concentration (μg/mL) in label, read-out: MIC50): 8 mg/L (≈ 13.7 µM)
MIC90 ([6]; Pseudomonas aeruginosa, MEM-nonsusceptible Pseudomonas aeruginosa (76), fixed concentration (μg/mL) in label, read-out: MIC90): > 64 mg/L
MIC50 ([6]; Pseudomonas aeruginosa, Table 2, broth microdilution, read-out: MIC50): 64 mg/L (≈ 109 µM)
MIC90 ([6]; Pseudomonas aeruginosa, Table 2, broth microdilution, read-out: MIC90): > 64 mg/L
CLSI MIC interpretation (%) R [6, 13]: 55.6%
CLSI MIC interpretation (%) S ([6]; S, susceptible, CLSI breakpoints, last subgroup of Table 2): 33.3%
CLSI MIC interpretation I (intermediate) [7, 11]: 14.5%
CLSI MIC interpretation R (resistant) [7, 11]: 56.4%
CLSI MIC interpretation S (susceptible) [7, 11]: 29.1%
MIC50 ([7]; read-out: MIC50): 64 mg/L (≈ 109 µM)
MIC90 ([7]; read-out: MIC90): > 64 mg/L
CLSI MIC interpretation I (intermediate) [8, 10]: 8.8%
CLSI MIC interpretation R (resistant) [8, 10]: 37.5%
CLSI MIC interpretation S (susceptible) [8, 10]: 53.8%
MIC50 ([8]; read-out: MIC50): 4 mg/L (≈ 6.83 µM)
MIC90 ([8]; read-out: MIC90): 64 mg/L (≈ 109 µM)

colistin
CLSI MIC interpretation I (intermediate) [1, 9]: 89.2%
CLSI MIC interpretation R (resistant) [1, 9]: 10.8%
MIC50 [1, 16]: 0.5 mg/L
MIC90 [1, 16]: 4 mg/L
MIC90 ([1]; MBL-producing isolates, comparators): ≤ 4 mg/L
CLSI MIC interpretation I (intermediate) [2, 10]: 77.2%
CLSI MIC interpretation R (resistant) [2, 10]: 22.8%
MIC50 [2]: 0.5 mg/L
MIC90 [2]: >64 mg/L
CLSI MIC interpretation I (intermediate) [3, 10]: 74.1%
CLSI MIC interpretation R (resistant) [3, 10]: 25.9%
MIC50 [3]: 0.5 mg/L
MIC90 [3]: >64 mg/L
CLSI MIC interpretation I (intermediate) (96 P. aeruginosa; [11]): 100%
CLSI MIC interpretation R (resistant) (96 P. aeruginosa; [11]): 0%
MIC50 (96 P. aeruginosa; [17]): 1 mg/L
MIC90 (96 P. aeruginosa; [17]): 1 mg/L
MIC Range (96 P. aeruginosa; [17]): 0.25 to 2 mg/L
CLSI MIC interpretation I (intermediate) [4, 12]: 78.3%
CLSI MIC interpretation R (resistant) [4, 12]: 21.7%
MIC50 [4, 18]: 0.5 mg/L
MIC90 [4, 18]: >64 mg/L
CLSI MIC interpretation R (resistant) [5, 10]: 14.5%
MIC50 [5]: 0.5 mg/L
MIC90 [5]: 8 mg/L
CLSI MIC interpretation I (intermediate) [6]: 100%
CLSI MIC interpretation R (resistant) [6]: 0%
MIC50 [6]: 1 mg/L
MIC90 [6]: 1 mg/L
MIC Range [6]: 0.5 to 2 mg/L and 0.25 to 2 mg/L
CLSI MIC interpretation (%) I [6, 13]: 100%
CLSI MIC interpretation I (intermediate) [6, 15]: 100%
CLSI MIC interpretation R (resistant) [6, 15]: 0%
MIC50 [6, 19]: 1 mg/L
MIC90 [6, 19]: 1 mg/L
MIC Range [6, 19]: 0.25 to 2 mg/L
CLSI MIC interpretation (%) R [6, 13]: 0%
MIC50 ([6]; Table 2, broth microdilution): 1 mg/L
MIC90 ([6]; Table 2, broth microdilution): 1 mg/L
CLSI MIC interpretation I (intermediate) [7, 11]: 94.5%
CLSI MIC interpretation R (resistant) [7, 11]: 5.5%
MIC50 [7]: 1 mg/L
MIC90 [7]: 2 mg/L
MIC50 [8]: 0.5 mg/L
MIC90 [8]: >64 mg/L

Reference: PMC11620503 (Antimicrobial Agents and Chemotherapy, 2024)
